From the NIST ThermoML archive (doi:10.1021/acs.jced.6b00700)
± gives the expanded uncertainty stated by the source.

Experiments:
[1] = Liquid, Ebulliometric method (Recirculating still)
[2] = refractive index (Na D-line) (dimensionless); details: 293 K; 96.15 kPa; Liquid; Standard Abbe refractometry
[3] = refractive index (Na D-line) (dimensionless); xn = mol fraction of the nth substance listed; details: 293 K, 96.15 kPa, Liquid, Standard Abbe refractometry

CC(=O)O [acetic acid]
vapor or sublimation pressure ([1]; 388.91 K): 96.15 ± 0.98 kPa | refractive index [2]: 1.3724 ± 0.004

CC(=O)O [acetic acid] + COc1ccccc1
refractive index ([3]; x1 = 1): 1.3724 ± 0.004

CC(C)=O [acetone]
vapor or sublimation pressure ([1]; 327.9 K): 96.15 ± 0.98 kPa | refractive index [2]: 1.3606 ± 0.004

CC(C)=O [acetone] + COc1ccccc1
refractive index ([3]; x1 = 1): 1.3606 ± 0.004

Nc1ccccc1 [aniline]
vapor or sublimation pressure ([1]; 455.4 K): 96.15 ± 0.99 kPa | refractive index [2]: 1.5868 ± 0.004

Nc1ccccc1 [aniline] + CN(C)C=O
refractive index ([3]; x2 = 0): 1.5868 ± 0.004 | refractive index ([3]; x2 = 0.0624): 1.5795 ± 0.004 | refractive index ([3]; x2 = 0.1252): 1.5723 ± 0.004 | refractive index ([3]; x2 = 0.2423): 1.5575 ± 0.004 | refractive index ([3]; x2 = 0.3527): 1.543 ± 0.004 | refractive index ([3]; x2 = 0.459): 1.5267 ± 0.004 | refractive index ([3]; x2 = 0.5592): 1.5119 ± 0.004 | refractive index ([3]; x2 = 0.6561): 1.4975 ± 0.004 | refractive index ([3]; x2 = 0.7474): 1.4799 ± 0.004 | refractive index ([3]; x2 = 0.8363): 1.4638 ± 0.004 | refractive index ([3]; x2 = 0.9206): 1.4477 ± 0.004 | refractive index ([3]; x2 = 0.9602): 1.4401 ± 0.004

COc1ccccc1 [anisole]
vapor or sublimation pressure ([1]; 424.55 K): 96.15 ± 0.99 kPa | vapor or sublimation pressure ([1]; 424.61 K): 96.15 ± 0.99 kPa | vapor or sublimation pressure ([1]; 424.79 K): 96.15 ± 0.99 kPa | refractive index [2]: 1.5175 ± 0.004

COc1ccccc1 [anisole] + CC(=O)O
refractive index ([3]; x2 = 0): 1.5175 ± 0.004 | refractive index ([3]; x2 = 0.0875): 1.5107 ± 0.004 | refractive index ([3]; x2 = 0.167): 1.503 ± 0.004 | refractive index ([3]; x2 = 0.3109): 1.4878 ± 0.004 | refractive index ([3]; x2 = 0.4358): 1.4731 ± 0.004 | refractive index ([3]; x2 = 0.5453): 1.4584 ± 0.004 | refractive index ([3]; x2 = 0.6416): 1.4441 ± 0.004 | refractive index ([3]; x2 = 0.7302): 1.4295 ± 0.004 | refractive index ([3]; x2 = 0.8075): 1.4155 ± 0.004 | refractive index ([3]; x2 = 0.877): 1.4018 ± 0.004 | refractive index ([3]; x2 = 0.9413): 1.3874 ± 0.004 | refractive index ([3]; x2 = 0.9711): 1.3807 ± 0.004

COc1ccccc1 [anisole] + CC(C)=O
refractive index ([3]; x2 = 0): 1.5175 ± 0.004 | refractive index ([3]; x2 = 0.0888): 1.5095 ± 0.004 | refractive index ([3]; x2 = 0.1723): 1.4998 ± 0.004 | refractive index ([3]; x2 = 0.3184): 1.4879 ± 0.004 | refractive index ([3]; x2 = 0.4448): 1.4709 ± 0.004 | refractive index ([3]; x2 = 0.5541): 1.459 ± 0.004 | refractive index ([3]; x2 = 0.6508): 1.4441 ± 0.004 | refractive index ([3]; x2 = 0.736): 1.4285 ± 0.004 | refractive index ([3]; x2 = 0.8121): 1.406 ± 0.004 | refractive index ([3]; x2 = 0.8816): 1.3923 ± 0.004 | refractive index ([3]; x2 = 0.9434): 1.3746 ± 0.004 | refractive index ([3]; x2 = 0.9725): 1.3678 ± 0.004

COc1ccccc1 [anisole] + CC(C)O
refractive index ([3]; x2 = 0): 1.5175 ± 0.004 | refractive index ([3]; x2 = 0.0879): 1.5092 ± 0.004 | refractive index ([3]; x2 = 0.1663): 1.5011 ± 0.004 | refractive index ([3]; x2 = 0.3122): 1.484 ± 0.004 | refractive index ([3]; x2 = 0.4359): 1.4688 ± 0.004 | refractive index ([3]; x2 = 0.5438): 1.4543 ± 0.004 | refractive index ([3]; x2 = 0.6429): 1.4403 ± 0.004 | refractive index ([3]; x2 = 0.7293): 1.4272 ± 0.004 | refractive index ([3]; x2 = 0.8063): 1.4143 ± 0.004 | refractive index ([3]; x2 = 0.879): 1.4019 ± 0.004 | refractive index ([3]; x2 = 0.9372): 1.3911 ± 0.004 | refractive index ([3]; x2 = 0.9693): 1.3861 ± 0.004

CN(C)C=O [dimethylformamide]
vapor or sublimation pressure ([1]; 424.53 K): 96.15 ± 0.99 kPa | vapor or sublimation pressure ([1]; 424.6 K): 96.15 ± 0.99 kPa | refractive index [2]: 1.4318 ± 0.004

CN(C)C=O [dimethylformamide] + Nc1ccccc1
refractive index ([3]; x1 = 1): 1.4318 ± 0.004

CC(C)O [propan-2-ol]
vapor or sublimation pressure ([1]; 354.17 K): 96.15 ± 0.98 kPa | refractive index [2]: 1.3758 ± 0.004

CC(C)O [propan-2-ol] + COc1ccccc1
refractive index ([3]; x1 = 1): 1.3758 ± 0.004
